{"source": "patent US20030078274A1", "about": "“Method of reducing neuronal injury or apoptosis” (priority 1999, published 2003)", "key": {"cultured RGCs": {"tested_on": "cultured RGCs", "assay": "NMDA-induced apoptosis in cultured RGCs", "assay_type": "cell-based, Long-Evans rats", "conditions": "1 μM; 300 μM NMDA/5 μM glycine for 18 hr", "experimental": "Retinal cell cultures. Retinal cells were prepared from 6-10 day old Long-Evans rats as described in Leifer et al., Science 224:303-306 (1984). Briefly, following dissociation in papain, retinal cells were plated on poly-L-lysine-coated glass coverslips in Eagle's minimum essential medium. RGCs were identified by immunocytochemical staining using an anti-Thy-1 antibody (2G12), which is specific among rat retinal cells for the ganglion cells.\nAssessment of NMDA-induced apoptosis in cultured RGCs. To induce predominantly apoptosis (See Bonfoco et al., Proc. Natl. Acad. Sci. USA 92:7162-7166 (1995); Dreyer et al., Neuroreport 6:942-944 (1995)), retinal cell cultures were exposed to 300 μM NMDA/5 μM glycine for 18 hr in high calcium (3 mM) medium. For specific labeling of RGCs, the cultures were incubated with anti-Thy-1 antibody for 1 hr. Following 3 washes with PBS, cells were incubated in goat-anti-mouse-IgG-FITC for 1 hr. For assessment of apoptosis, retinal cells were fixed, permeabilized and stained with 20 μg/ml propidium iodide for 5 min, as described in Ankarcrona et al., Neuron 15:961-973 (1995). Briefly, coverslips containing the cells were washed once with PBS and permeabilized with 85% methanol for 10 min. […] Apoptotic nuclei were scored in cells that were also stained by anti-Thy-1, and expressed as a fraction of total RGCs."}, "[1]": {"tested_on": "neurons in rat cerebrocortical cultures (gp120-induced apoptosis)", "assay": "gp120-induced neuronal apoptosis in rat cerebrocortical cultures", "assay_type": "cell-based, Sprague-Dawley rats", "conditions": "SB 203580 10 μM, applied 15 min before gp120", "experimental": "The model used in the assays described below, i.e., rat cerebrocortical cultures, was prepared from embryos of Sprague-Dawley rats at day 15 to 17 of gestation. See Lei et al., Neuron 8:1087-1099 (1992) and Lipton et al., Nature 364:626-632 (1993). Cultures were used for experiments after 17 to 24 days in culture. […] Prior to some experiments, macrophages/microglia or neurons were depleted from the cultures by exposure to 7.5 mM L-leucine methyl ester or 2 mM N-methyl-D-aspartate (NMDA), respectively. See Lipton, NeuroReport 3:913-915 (1992). […] In some experiments, the Griess reaction was used to measure nitrite levels in the culture medium as an index of nitric oxide (NO) release. See Chao et al., Glia 16:276-284 (1996).\nCultures were transferred into Earle's Balanced Salt Solution (EBSS) and incubated for 24 hours with gp120, chemokines, Tuftsin fragment 1-3, i.e., Thr-Lys-Pro (TKP), p38 MAPK inhibitor SB 203580 (i.e., 4-(4-fluorophenyl)-2-(4-methylsulfinylphenyl)-5-(4-pyridyl)imidazole, Calbiochem, San Diego, Calif.), or combinations thereof. Chemokines or TKP were applied for 5 minutes and SB 203580 for 15 minutes prior to gp120 exposure.\nTKP was obtained from Sigma (St. Louis, Mo.). Recombinant human MIP-1β, SDF-1α, SDF-1β, and recombinant rat RANTES were purchased from R&D systems ([…].) and Endogen (Woburn, Mass.), respectively. HIV-1 envelope glycoprotein gp120 from the strain SF2 was obtained from the NIH AIDS Research and Reference Reagent Program, Division of AIDS, NIAID, NIH. See Scandella et al., AIDS Res. Hum. Retroviruses 9:1233-1244 (1993). Additional gp120s from HIV-1 strains IIIB and RF2 were obtained from Genetech and the National Cancer Institute, respectively. TNFα, IFNγ, and IL-1β were from Genzyme (Cambridge, Mass.), Gibco BRL (Grand Island, N.Y.) and Endogen (Woburn, Mass.), respectively.\nNeuronal apoptosis in the above-described assays was assessed using a variety of techniques, e.g., staining of permeabilized cells with propidium iodide to determine apoptotic morphology, and a neuron-specific antibody (against NeuN or MAP-2) to identify cell type. In brief, cells were fixed for 5 minutes with ice-cold acetone at −20° C. and, after three washes in PBS, for 4 minutes with 2% (w/v) paraformaldehyde solution in PBS at room temperature (RT). Acetone-paraformaldehyde-fixed cells were permeabilized using 0.2% Tween 20 in PBS (PBST), and non-specific binding sites were blocked by incubation for 1 hour with a 10% solution of heat-inactivated goat serum in PBST. To specifically stain neurons, cells were then incubated for 4 hours at RT or overnight at 4° C. with 1:500 dilutions of anti-MAP-2 (Sigma) or anti-NeuN monoclonal antibody (mAb; Chemicon, Temecula, Calif.). Their respective non-specific isotype antibodies served as controls. After three washes, the cells were incubated in a secondary polyclonal antibody (pAb) conjugated either to fluorescein isothiocyanate (FITC) or to horseradish peroxidase (HRP). In the case of HRP-coupled pAb, diaminobenzidine (DAB) served as the color substrate developed by incubation in a mixture of 1 mg/ml DAB and 0.8% H2O2 at a ratio of 3:1. Cellular nuclei were subsequently stained with […] propidium iodide for 5 minutes in the dark, and then coverslips were mounted on glass slides. Experiments were replicated at least 3 times with triplicate values in each experiment. Statistical significance was judged by an analysis of variance (ANOVA) followed by a Scheffé or Bonferroni/Dunn post hoc test."}, "[2]": {"tested_on": "neurons in rat cerebrocortical cultures (SDF-1-induced apoptosis)", "assay": "SDF-1-induced neuronal apoptosis in rat cerebrocortical cultures", "assay_type": "cell-based, Sprague-Dawley rats", "conditions": "p38 MAPK inhibition by SB 203580, FIG. 4(B)", "experimental": "The model used in the assays described below, i.e., rat cerebrocortical cultures, was prepared from embryos of Sprague-Dawley rats at day 15 to 17 of gestation. See Lei et al., Neuron 8:1087-1099 (1992) and Lipton et al., Nature 364:626-632 (1993). Cultures were used for experiments after 17 to 24 days in culture. These cultures contain neurons, astrocytes, and macrophages/microglia, as determined with specific immunolabeling. Prior to some experiments, macrophages/microglia or neurons were depleted from the cultures by exposure to 7.5 mM L-leucine methyl ester or 2 mM N-methyl-D-aspartate (NMDA), respectively. See Lipton, NeuroReport 3:913-915 (1992). Absence of macrophages/microglia or neurons in these cultures was confirmed immunocytochemically, using antibodies to ED-1 and microtubule-associated protein-2 (MAP-2), respectively. In some experiments, the Griess reaction was used to measure nitrite levels in the culture medium as an index of nitric oxide (NO) release. See Chao et al., Glia 16:276-284 (1996). […]\nNeuronal apoptosis in the above-described assays was assessed using a variety of techniques, e.g., staining of permeabilized cells with propidium iodide to determine apoptotic morphology, and a neuron-specific antibody (against NeuN or MAP-2) to identify cell type. […]"}}}
{"smiles": "C[S+]([O-])c1ccc(-c2nc(-c3ccc(F)cc3)c(-c3ccncc3)[nH]2)cc1", "note": "(stereo not drawn) [SB 203580, 4-(4-fluorophenyl)-2-(4-methylsulfinylphenyl)-5-(4-pyridyl)-1H-imidazole]", "values": [{"measurement": "survival of RGCs in the face of NMDA exposure", "setting": "cultured RGCs", "result": "significantly increased"}, {"measurement": "effect on gp120SF2-induced neuronal apoptosis", "setting": "[1]", "result": "substantially attenuated"}, {"measurement": "effect on SDF-1 neurotoxicity (SDF-1β-induced neuronal apoptosis)", "setting": "[2]", "result": "ameliorated"}]}
